Experimental data taken from patent publication US8329645B2, “Polymyxin derivatives and uses thereof” (priority 2008, dated 2012).
Where a SMILES comes first, the peptide text is derived from it. Bridges are numbered along the chain shown (N, C = ends). [ ]: non-standard residue; d: D form. The star is where a group is joined. Octanoyl = CCCCCCCC(=O)*; Dab = NCC[C@H](N)C(=O)O; Abu = CC[C@H](N)C(=O)O

Experiments:
A. baumannii ATCC 19606 [1] = settings: ATCC 19606
Procedure: (§1) Polymyxin B sulfate (Sigma-Aldrich, St. Louis, Mo., USA) was used as a control. […] The bacterial test strains originated from ATCC (10 strains), CCUG (11 strains), and NCTC (3 strains). Fourteen (14) strains (the F-strains) were purchased from Mobidiag Ltd., Helsinki, Finland.
(§2) The inocula were prepared by adjusting the bacterial suspensions to a density equivalent to OD546 nm˜0.3 (˜10^8 CFU/ml˜0.5 McFarland) the yeast suspension to a density equivalent to OD546 nm˜0.75 (˜2×10^7 CFU/ml)._The suspensions were diluted to 10^7 CFU/ml. The plates were inoculated by using a Denley Multipoint Inoculator, 1 μl per spot corresponding to approx. 10^4 CFU/spot. Plates were incubated for 16-20 hours at 35° C.

E. coli CCUG 41429 = settings: CCUG 41429
Procedure: as §1, §2

K. pneumoniae ATCC 13883 = settings: ATCC 13883
Procedure: as §1, §2

P. aeruginosa ATCC 27853 = settings: ATCC 27853
Procedure: as §1, §2

E. cloacae F230 = settings: F230
Procedure: as §1, §2

E. coli CCUG 41425 = settings: CCUG 41425
Procedure: as §1, §2

C. freundii ATCC 8090 = settings: ATCC 8090
Procedure: as §1, §2

E. cloacae F231 = settings: F231
Procedure: as §1, §2

E. cloacae F232 = settings: F232
Procedure: as §1, §2

K. pneumoniae F144 = settings: F144
Procedure: as §1, §2

E. coli NCTC 13351 = settings: NCTC 13351
Procedure: as §1, §2

P. aeruginosa CCUG 51971 = tested on: P. aeruginosa CCUG 51971
Procedure: as §1, §2

E. cloacae ATCC 23355 = settings: ATCC 23355
Procedure: as §1, §2

K. oxytoca CCUG 51683 = settings: CCUG 51683
Procedure: as §1, §2

E. coli IH3080 = settings: IH3080
Procedure: as §1, §2

A. baumannii F264 = settings: F264
Procedure: as §1, §2

[2] = tested on: S. maltophilia ATCC 17444; settings: ATCC 17444
Procedure: as §1, §2

P. aeruginosa F58 = settings: F58
Procedure: as §1, §2

E. cloacae CCUG 52947 = settings: CCUG 52947
Procedure: as §1, §2

E. coli F8 = settings: F8
Procedure: as §1, §2

C. albicans ATCC 28366 = settings: ATCC 28366
Procedure: as §1, §2

K. oxytoca ATCC 13182 = settings: ATCC 13182
Procedure: as §1, §2

S. aureus ATCC 25923 = settings: ATCC 25923
Procedure: as §1, §2

E. coli NCTC 13352 = settings: NCTC 13352
Procedure: as §1, §2

E. coli CCUG 41424 = settings: CCUG 41424
Procedure: as §1, §2

E. coli CCUG 41427 = settings: CCUG 41427
Procedure: as §1, §2

A. baumannii F263 = settings: F263
Procedure: as §1, §2

E. coli F19 = settings: F19
Procedure: as §1, §2

E. coli F10 = settings: F10
Procedure: as §1, §2

E. coli F9 = settings: F9
Procedure: as §1, §2

K. pneumoniae F145 = settings: F145
Procedure: as §1, §2

S. marcescens ATCC 8100 = settings: ATCC 8100
Procedure: as §1, §2

E. coli NCTC 13353 = settings: NCTC 13353
Procedure: as §1, §2

E. coli CCUG 41432 = settings: CCUG 41432
Procedure: as §1, §2

E. coli CCUG 41422 = tested on: E. coli CCUG 41422
Procedure: as §1, §2

E. coli ATCC 25922 = settings: ATCC 25922
Procedure: as §1, §2

K. pneumoniae F136 = settings: F136
Procedure: as §1, §2

K. pneumoniae CCUG 45421 = settings: CCUG 45421
Procedure: as §1, §2

A. baumannii ATCC 19606 [3] = test: Sensitization to rifampin: growth inhibition around wells on LB plates containing rifampin; type: cell-based, Acinetobacter baumannii; settings: 4 μg
[4] = tested on: Ps. aeruginosa ATCC 27853; test: as above; type: cell-based, Pseudomonas aeruginosa; settings: 4 μg

CCCCCCCC(=O)N[C@H](C(=O)N[C@@H](CC)C(=O)N[C@H]1CCNC(=O)[C@H]([C@@H](C)O)NC(=O)[C@H](CCN)NC(=O)[C@H](CCN)NC(=O)[C@H](CC(C)C)NC(=O)[C@@H](Cc2ccccc2)NC(=O)[C@H](CCN)NC1=O)[C@@H](C)O [NAB 7061, OA-Thr-Abu-cy[Dab-Dab-DPhe-Leu-Dab-Dab-Thr-]] (Octanoyl-T[Abu][Dab][Dab][dF]L[Dab][Dab]T; lactam 3-C)
16 µg/mL: MIC (E. coli CCUG 41429) | MIC (C. freundii ATCC 8090)
50 square millimeters: growth inhibition around a well in the presence of rifampin (A. baumannii ATCC 19606 [3]; rifampin 0.3 μg/ml)
0 square millimeters: growth inhibition around a well in the presence of rifampin (A. baumannii ATCC 19606 [3]; rifampin 0 μg/ml) | growth inhibition around a well in the presence of rifampin ([4]; rifampin 0 μg/ml) | growth inhibition around a well in the presence of rifampin ([4]; rifampin 0.1 μg/ml) | growth inhibition around a well in the presence of rifampin ([4]; rifampin 0.3 μg/ml)
>32 µg/mL: MIC (A. baumannii ATCC 19606 [1]) | MIC (K. pneumoniae ATCC 13883) | MIC (P. aeruginosa ATCC 27853) | MIC (E. cloacae F230) | MIC (E. coli CCUG 41425) | MIC (E. cloacae F232) | MIC (K. pneumoniae F144) | MIC (E. coli NCTC 13351) | MIC (P. aeruginosa CCUG 51971) | MIC (E. coli IH3080) | MIC (A. baumannii F264) | MIC [2] | MIC (P. aeruginosa F58) | MIC (E. cloacae CCUG 52947) | MIC (E. coli F8) | MIC (C. albicans ATCC 28366) | MIC (S. aureus ATCC 25923) | MIC (E. coli CCUG 41427) | MIC (A. baumannii F263) | MIC (E. coli F10) | MIC (E. coli F9) | MIC (K. pneumoniae F145) | MIC (S. marcescens ATCC 8100) | MIC (E. coli NCTC 13353) | MIC (E. coli CCUG 41432) | MIC (E. coli CCUG 41422) | MIC (E. coli ATCC 25922) | MIC (K. pneumoniae F136) | MIC (K. pneumoniae CCUG 45421)
32 µg/mL: MIC (E. cloacae F231) | MIC (E. cloacae ATCC 23355) | MIC (K. oxytoca CCUG 51683) | MIC (K. oxytoca ATCC 13182) | MIC (E. coli NCTC 13352) | MIC (E. coli CCUG 41424) | MIC (E. coli F19)
